PubChem BioAssay (NCI)
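Cultured in 96-well plates, cells were exposed to test compound for 48 hours across five concentrations. TGI: concentration producing complete growth inhibition.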

How the values were obtained:
Experiment in all cases: DTP human tumour cell line panel, 48 h
SR leukemia = tested on: SR leukemia
OVCAR-8 ovarian = tested on: OVCAR-8 ovarian
A549 NSCLC = tested on: A549 NSCLC
HS 578T breast = tested on: HS 578T breast
EKVX NSCLC = tested on: EKVX NSCLC
U251 CNS = tested on: U251 CNS
ACHN renal = tested on: ACHN renal
SN12C renal = tested on: SN12C renal
LOX IMVI melanoma = tested on: LOX IMVI melanoma
HCC-2998 colon = tested on: HCC-2998 colon
RPMI-8226 leukemia = tested on: RPMI-8226 leukemia
MALME-3M melanoma = tested on: MALME-3M melanoma
UACC-257 melanoma = tested on: UACC-257 melanoma
KM12 colon = tested on: KM12 colon
SNB-75 CNS = tested on: SNB-75 CNS
SNB-19 CNS = tested on: SNB-19 CNS
HOP-92 NSCLC = tested on: HOP-92 NSCLC
SK-MEL-5 melanoma = tested on: SK-MEL-5 melanoma
SF-539 CNS = tested on: SF-539 CNS
SK-OV-3 ovarian = tested on: SK-OV-3 ovarian
NCI-H460 lung = tested on: NCI-H460 lung
MDA-MB-231 breast = tested on: MDA-MB-231 breast
NCI/ADR-RES ovarian = tested on: NCI/ADR-RES ovarian
MCF7 breast = tested on: MCF7 breast
OVCAR-5 ovarian = tested on: OVCAR-5 ovarian
MDA-N = tested on: MDA-N
A498 renal = tested on: A498 renal
DU-145 prostate = tested on: DU-145 prostate
SK-MEL-2 melanoma = tested on: SK-MEL-2 melanoma
HL-60(TB) leukemia = tested on: HL-60(TB) leukemia
MOLT-4 leukemia = tested on: MOLT-4 leukemia
HCT-116 colon = tested on: HCT-116 colon
PC-3 prostate = tested on: PC-3 prostate
SW-620 colon = tested on: SW-620 colon
K-562 leukemia = tested on: K-562 leukemia
UO-31 renal = tested on: UO-31 renal
TK-10 renal = tested on: TK-10 renal
NCI-H522 lung = tested on: NCI-H522 lung
NCI-H23 lung = tested on: NCI-H23 lung
786-0 renal = tested on: 786-0 renal
T-47D breast = tested on: T-47D breast
MDA-MB-435 = tested on: MDA-MB-435
RXF 393 renal = tested on: RXF 393 renal
SF-268 CNS = tested on: SF-268 CNS
CAKI-1 renal = tested on: CAKI-1 renal
SF-295 CNS = tested on: SF-295 CNS
HCT-15 colon = tested on: HCT-15 colon
NCI-H226 lung = tested on: NCI-H226 lung
COLO 205 colon = tested on: COLO 205 colon
HT29 colon = tested on: HT29 colon
M14 melanoma = tested on: M14 melanoma
UACC-62 melanoma = tested on: UACC-62 melanoma
CCRF-CEM leukemia = tested on: CCRF-CEM leukemia
HOP-62 NSCLC = tested on: HOP-62 NSCLC
OVCAR-3 ovarian = tested on: OVCAR-3 ovarian
SK-MEL-28 melanoma = tested on: SK-MEL-28 melanoma
IGROV1 ovarian = tested on: IGROV1 ovarian
OVCAR-4 ovarian = tested on: OVCAR-4 ovarian
BT-549 breast = tested on: BT-549 breast

Measured: TGI

O=C1OC(C2=CC(=O)c3ccccc3C2=O)C(Cl)=C1Cl (configuration not stated)
86 µM: U251 CNS
49.9 µM: LOX IMVI melanoma
41 µM: HCT-15 colon
59.4 µM: NCI-H23 lung
43.2 µM: 786-0 renal
59 µM: SN12C renal
61.3 µM: HCC-2998 colon
72.7 µM: SF-539 CNS
33.6 µM: ACHN renal
39.3 µM: NCI-H522 lung
83.7 µM: T-47D breast
50.9 µM: CCRF-CEM leukemia
96.2 µM: SK-MEL-28 melanoma
47.3 µM: RPMI-8226 leukemia
83.3 µM: K-562 leukemia
44.8 µM: MCF7 breast
75.5 µM: PC-3 prostate
52.5 µM: RXF 393 renal
57.9 µM: MALME-3M melanoma
94.1 µM: SW-620 colon
79.2 µM: SF-268 CNS
35.4 µM: SK-MEL-2 melanoma
36 µM: MDA-MB-231 breast
95.3 µM: NCI-H226 lung
> 100 µM: A549 NSCLC | HS 578T breast | EKVX NSCLC | UACC-257 melanoma | KM12 colon | SNB-75 CNS | SNB-19 CNS | HOP-92 NSCLC | SK-MEL-5 melanoma | SK-OV-3 ovarian | NCI-H460 lung | NCI/ADR-RES ovarian | OVCAR-5 ovarian | MDA-N | A498 renal | DU-145 prostate | HL-60(TB) leukemia | MOLT-4 leukemia | HCT-116 colon | TK-10 renal | MDA-MB-435 | CAKI-1 renal | SF-295 CNS | COLO 205 colon | HT29 colon | M14 melanoma | HOP-62 NSCLC | OVCAR-3 ovarian
29.8 µM: OVCAR-8 ovarian
70.3 µM: SR leukemia
39.5 µM: UACC-62 melanoma
31.8 µM: UO-31 renal

N#Cc1c(C#N)c(-c2ccco2)n(-c2ccccc2)c1N
73.1 µM: OVCAR-8 ovarian
84.4 µM: SNB-75 CNS
> 100 µM: SR leukemia | A549 NSCLC | EKVX NSCLC | U251 CNS | ACHN renal | SN12C renal | LOX IMVI melanoma | HCC-2998 colon | RPMI-8226 leukemia | MALME-3M melanoma | UACC-257 melanoma | KM12 colon | SNB-19 CNS | HOP-92 NSCLC | SK-MEL-5 melanoma | SF-539 CNS | SK-OV-3 ovarian | MDA-MB-231 breast | NCI/ADR-RES ovarian | MCF7 breast | OVCAR-5 ovarian | MDA-N | A498 renal | DU-145 prostate | SK-MEL-2 melanoma | HL-60(TB) leukemia | MOLT-4 leukemia | HCT-116 colon | PC-3 prostate | SW-620 colon | K-562 leukemia | UO-31 renal | TK-10 renal | NCI-H522 lung | NCI-H23 lung | IGROV1 ovarian | 786-0 renal | T-47D breast | MDA-MB-435 | RXF 393 renal | SF-268 CNS | CAKI-1 renal | SF-295 CNS | OVCAR-4 ovarian | BT-549 breast | HCT-15 colon | NCI-H226 lung | COLO 205 colon | HT29 colon | M14 melanoma | UACC-62 melanoma | CCRF-CEM leukemia | HOP-62 NSCLC | OVCAR-3 ovarian
